Data taken from publication PMC7926793, “Synthesis and Biological Evaluation of 1-(Diarylmethyl)-1H-1,2,4-triazoles and 1-(Diarylmethyl)-1H-imidazoles as a Novel Class of Anti-Mitotic Agent for Activity in Breast Cancer” (Pharmaceuticals, 2021).

Tests used:
[1] = system: MCF-7 human breast cancer cells; assay: alamarBlue cell viability assay; type: cell-based; conditions: Homo sapiens, 72 h; for IC50: MCF7, 72 h, alamarBlue, read-out: Antiproliferative Activity MCF-7 Cells IC50
Experimental: (§1) The human breast carcinoma cell line MCF-7 was purchased from the European Collection of Animal Cell Cultures (ECACC) and cultured in Eagles minimum essential medium with 10% foetal bovine serum, 2 mM L-glutamine, and 100 μg/mL penicillin/streptomycin. The medium was supplemented with 1% non-essential amino acids. The human breast carcinoma cell line MDA-MB-231 was purchased from the ECACC. MDA-MB-231 cells were maintained in Dulbecco’s modified Eagle’s medium (DMEM) supplemented with 10% (v/v) foetal bovine serum, 2 mM L-glutamine, and 100 μg/mL penicillin/streptomycin (complete medium). HL-60 cells were derived from a patient with acute myeloid leukaemia and were obtained from the ECACC (Salisbury, UK). Cells were cultured in RPMI-1640 Glutamax medium supplemented with 10% FCS media and 100 μg/mL penicillin/streptomycin. MCF-10A cells were obtained as a kind gift from Dr Susan McDonnell, School of Chemical and Bioprocess Engineering, University College Dublin and were cultured in Dulbecco’s Modified Eagle Medium: Nutrient Mixture F-12 (DMEM/F12; Gibco) supplemented with 5% horse serum (Invitrogen), 20 ng mL^−1 epidermal growth factor (Merck Millipore), 0.5 μg mL^−1 hydrocortisone (Sigma,-Aldrich, Arklow, Co. Wicklow, Ireland), 100 ng mL^−1 cholera toxin (Sigma, Aldrich, Arklow, Co. Wicklow, Ireland), 10 μg mL^−1 insulin (Sigma, Aldrich, Arklow, Co. Wicklow, Ireland), and penicillin/streptomycin 5000 U mL^−1 (1%)(Gibco, Biosciences, 3 Charlemont Terrace, Crofton Road, Dun Laoghaire, Co Dublin, A96 K7H7, Ireland). Cells were maintained at 37 °C in 5% CO2 in a humidified incubator. All cells were sub-cultured 3 times/week by trypsinisation using TrypLE Express (1×).
(§2) Cells were seeded at a density of 2.5 × 10^4 cells/well (MCF-7, MDA-MB-231, MCF-10A cells) and 1 × 10^4 cells/well (HL-60) in 96-well plates (200 μL per well). After 24 h, cells were then treated with either medium alone, vehicle control (1% ethanol (v/v)) or with serial dilutions of CA-4 (4a), phenstatin (7a) or selected compounds (0.001–100 μM) in triplicate. Cell proliferation for MCF-7, MDA-MB-231, and MCF-10A cells was analysed using the alamarBlue assay (Invitrogen Corp.) according to the manufacturer’s instructions. After 67–69 h, alamarBlue (10% (v/v)) was added to each well, and plates were incubated for 3–5 h at 37 °C in the dark. Fluorescence was read using a 96-well fluorimeter with excitation at 530 nm and emission at 590 nm. Results were expressed as percentage viability relative to vehicle control (100%).

[2] = system: MDA-MB-231 human breast cancer cells; assay: alamarBlue cell viability assay; type: cell-based; conditions: Homo sapiens, MDA-MB-231, 72 h, read-out: Antiproliferative Activity MDA-MB-231 Cells IC50
Experimental: as §1, §2

HL-60 leukaemia cells = assay: cell viability assay; type: cell-based; conditions: Homo sapiens, read-out: Antiproliferative Activity HL-60 Cells IC50
Experimental: as §1, with “Cells were maintained at 37 °C in 5% CO2 in a humidified incubator. All cells were sub-cultured 3 times/week by trypsinisation using TrypLE Express (1×).” left out
Cells were seeded at a density of 2.5 × 10^4 cells/well (MCF-7, MDA-MB-231, MCF-10A cells) and 1 × 10^4 cells/well (HL-60) in 96-well plates (200 μL per well). […] Cell proliferation for MCF-7, MDA-MB-231, and MCF-10A cells was analysed using the alamarBlue assay (Invitrogen Corp.) according to the manufacturer’s instructions. […] Fluorescence was read using a 96-well fluorimeter with excitation at 530 nm and emission at 590 nm. Results were expressed as percentage viability relative to vehicle control (100%).

[3] = system: tubulin (microtubule network) in MCF-7 cells; assay: immunofluorescence confocal microscopy of microtubule network; type: cell-based, human; conditions: 1 μM, 16 h
Experimental: Confocal microscopy was used to study the effects of drug treatment on MCF-7 cytoskeleton. For immunofluorescence, MCF-7 cells were seeded at 1 × 10^5 cells/mL on eight chamber glass slides (BD Biosciences). […] Following treatment, cells were gently washed in PBS, fixed for 20 min with 4% paraformaldehyde in PBS, and permeabilised in 0.5% Triton X-100. Following washes in PBS containing 0.1% Tween (PBST), cells were blocked in 5% bovine serum albumin diluted in PBST. […] Following washes in PBST, the cells were mounted in Ultra Cruz Mounting Media (Santa Cruz Biotechnology, Santa Cruz, CA) containing 4,6-diamino-2-phenolindol dihydrochloride (DAPI). Images were captured by Leica SP8 confocal microscopy with Leica application suite X software. All images in each experiment were collected on the same day using identical parameters. Experiments were performed on three independent occasions.

[4] = MCF7, read-out: cell viability (viable cells)

With `Fc1ccc(C(c2ccccc2)n2cncn2)cc1` (stereo not drawn) [13c, 1-((4-Fluorophenyl)(Phenyl)Methyl)-1H-1,2,4-Triazole] the melting point was 96 to 99 °C.

Work on `O=C(Nc1ccc(C(c2ccccc2)n2cncn2)cc1)C(F)(F)F` (stereo not drawn) [13i, 2,2,2-Trifluoro-N-(4-(Phenyl(1H-1,2,4-Triazol-1-yl)Methyl)Phenyl)Acetamide] yielded a melting point of 143 to 145 °C.

Compound `c1ccc(COc2ccc(C(c3ccccc3)n3cncn3)cc2)cc1` (stereo not drawn) [13j, 1-((4-(Benzyloxy)Phenyl)(Phenyl)Methyl)-1H-1,2,4-Triazole] has a melting point of 132 to 134 °C.

In the case of `CCOc1ccc(C(c2ccccc2)n2cncn2)cc1` (stereo not drawn) [13l, 1-((4-Ethoxyphenyl)(Phenyl)Methyl)-1H-1,2,4-Triazole], the melting point is reported as 98 to 100 °C.

In the case of `Nc1ccc(C(c2ccccc2)n2cncn2)cc1` (stereo not drawn) [13m, 4-(Phenyl(1H-1,2,4-Triazol-1-yl)Methyl)Aniline], the melting point is reported as 149 to 151 °C and the viability at 1 µM [1, 4] is reported as 72%.

Work on `Oc1ccc(C(c2ccccc2)n2cncn2)cc1` (stereo not drawn) [13n, 4-(Phenyl(1H-1,2,4-Triazol-1-yl)Methyl)Phenol] yielded a melting point of 189 to 191 °C.

For `Oc1ccc(C(c2ccc(O)cc2)n2cncn2)cc1` [13o], the viability at 1 µM [1, 4] was 68%.

For `COc1ccc(C(c2cc(OC)c(OC)c(OC)c2)n2cncn2)cc1` (stereo not drawn) [16c], the viability at 1 µM [1, 4] was 75%.

With `COc1cc(C(c2ccccc2)n2cncn2)cc(OC)c1OC` (stereo not drawn) [16e, 1-(Phenyl(3,4,5-Trimethoxyphenyl)Methyl)-1H-1,2,4-Triazole] the melting point was 139 to 140 °C.

With `COc1cc(C(c2ccc(F)cc2)n2cncn2)cc(OC)c1OC` (stereo not drawn) [16g] the viability at 1 µM [1, 4] was 77%.

`COc1ccc(C(c2cc(OC)c(OC)c(OC)c2)n2cncn2)cc1OCc1ccccc1` (stereo not drawn) [19a, 1-((3-(Benzyloxy)-4-Methoxyphenyl)(3,4,5-Trimethoxyphenyl)Methyl)-1H-1,2,4-Triazole] showed a melting point of 98 to 100 °C.

With `COc1ccc(C(c2ccc(C#N)cc2)n2cncn2)cc1OCc1ccccc1` (stereo not drawn) [19f, 4-((3-(Benzyloxy)-4-Methoxyphenyl)(1H-1,2,4-Triazol-1-yl)Methyl)Benzonitrile] the melting point was 91 to 93 °C.

With `N#Cc1ccc(C(c2ccc(OCc3ccccc3)cc2)n2cncn2)cc1` (stereo not drawn) [19g, 4-((4-(Benzyloxy)Phenyl)(1H-1,2,4-Triazol-1-yl)Methyl)Benzonitrile] the melting point was 79 to 81 °C.

Compound `COc1ccc(C(c2ccc(C#N)cc2)n2cncn2)cc1O` (stereo not drawn) [19h, 4-((3-Hydroxy-4-Methoxyphenyl)(1H-1,2,4-Triazol-1-yl)Methyl)Benzonitrile] has a melting point of 168 to 170 °C and an IC50 [1] of over 100000 nM.

`N#Cc1ccc(C(c2ccc(O)cc2)n2cncn2)cc1` (stereo not drawn) [19i, 4-((4-Hydroxyphenyl)(1H-1,2,4-Triazol-1-yl)Methyl)Benzonitrile] showed an IC50 [1] of over 100000 nM.

With `O=[N+]([O-])c1ccc(C(c2ccccc2)n2ccnc2)cc1` (stereo not drawn) [20b] the viability at 1 µM [1, 4] was 73%.

For `Brc1ccc(C(c2ccccc2)n2ccnc2)cc1` (stereo not drawn) [20c, 1-((4-Bromophenyl)(Phenyl)methyl)-1H-Imidazole], the melting point was 126 to 128 °C.

For `Fc1ccc(C(c2ccccc2)n2ccnc2)cc1` (stereo not drawn) [20d], the viability at 1 µM [1, 4] was 67%.

`COc1cc(C(c2cc(OC)c(OC)c(OC)c2)n2ccnc2)cc(OC)c1OC` [21i, 1-(Bis(3,4,5-Trimethoxyphenyl)Methyl)-1H-Imidazole] gave a melting point of 154 to 156 °C.

With `Brc1ccc(C(c2ccccc2)N2CCCC2)cc1` (stereo not drawn) [25b, 1-((4-Bromophenyl)(Phenyl)methyl)Pyrrolidine] the melting point was 70 to 72 °C.

For `COc1ccc(C(c2ccccc2)N2CCCC2)cc1` (stereo not drawn) [25d], the viability at 1 µM [1, 4] was 80%.

`COc1ccc(C(c2cc(OC)c(OC)c(OC)c2)N2CCN(c3ccc(C)cc3)CC2)cc1` (stereo not drawn) [27f] gave a viability at 0.1 µM ([1]; MCF7, 0.1 μM, read-out: cell viability (viable cells)) of 84%, a viability at 1 µM [1, 4] of 76% and a viability at 10 µM [1, 4] of 42%.

With `COc1ccc(C(c2cc(OC)c(OC)c(OC)c2)N2CCN(c3ccccc3)CC2)cc1OCc1ccccc1` (stereo not drawn) [27g, 1-((3-(Benzyloxy)-4-Methoxyphenyl)(3,4,5-Trimethoxyphenyl)Methyl)-4-Phenylpiperazine] the melting point was 124 to 126 °C.

Compound `COc1ccc(C(c2cc(OC)c(OC)c(OC)c2)N2CCN(c3ccccc3)CC2)cc1O` (stereo not drawn) [27i, 2-Methoxy-5-((4-Phenylpiperazin-1-yl)(3,4,5-Trimethoxyphenyl)Methyl)Phenol] has a viability at 10 µM [1, 4] of 48%.

Work on `COc1ccc(/C=C\c2cc(OC)c(OC)c(OC)c2)cc1O` [CA-4, reference compound] yielded an IC50 [2] of 43 nM, an IC50 [1] of 3.9 ± 0.32 nM and a viability at 1 µM [1, 4] of 24%. It also gave an IC50 (HL-60 leukaemia cells) of 1.9 ± 0.5 nM.

In the case of `CC(=O)O[C@H]1C(=O)[C@@]2(C)[C@H]([C@H](OC(=O)c3ccccc3)[C@]3(O)C[C@H](OC(=O)[C@H](O)[C@@H](NC(=O)c4ccccc4)c4ccccc4)C(C)=C1C3(C)C)[C@]1(OC(C)=O)CO[C@@H]1C[C@@H]2O` [paclitaxel, reference compound], the “effect on microtubule network of MCF-7 cells” value [3] is reported as “Hyperpolymerisation of tubulin”.
